Reference: the NIST ThermoML archive (doi:10.1016/j.fluid.2006.11.004)
± gives the expanded uncertainty stated by the source.

Test: xn = mol fraction of the nth substance listed
Conditions: 273.15 K, 111 kPa, Fluid (supercritical or subcritical phases), Flux Response Technology (based on capillary viscometry)

Row | Structure (SMILES) | excess molar volume (x1 = 1) [m3/mol] | excess molar volume (x2 = 0) [m3/mol] | excess molar volume (x2 = 0.0001) [m3/mol] | excess molar volume (x2 = 0.113) [m3/mol] | excess molar volume (x2 = 0.236) [m3/mol] | excess molar volume (x2 = 0.362) [m3/mol] | excess molar volume (x2 = 0.48) [m3/mol] | excess molar volume (x2 = 0.482) [m3/mol] | excess molar volume (x2 = 0.56) [m3/mol] | excess molar volume (x2 = 0.561) [m3/mol] | excess molar volume (x2 = 0.6) [m3/mol] | excess molar volume (x2 = 0.715) [m3/mol] | excess molar volume (x2 = 0.833) [m3/mol]
1 | O=C=O [carbon dioxide] + FC(F)(Cl)Cl | 0 ± 1e-07 | – | – | – | – | – | – | – | – | – | – | – | –
2 | FC(F)(Cl)Cl [dichlorodifluoromethane] + O=C=O | – | 0 ± 1e-07 | 0 ± 1e-07 | 3.11e-05 ± 4.4e-06 | 4.65e-05 ± 6.5e-06 | 5.16e-05 ± 7.2e-06 | 5.54e-05 ± 7.8e-06 | 4.91e-05 ± 6.9e-06 | 5.6e-05 ± 7.8e-06 | 5.24e-05 ± 7.3e-06 | 5.03e-05 ± 7e-06 | 5.03e-05 ± 7e-06 | 3.21e-05 ± 4.5e-06
